For one data set, the system named is PC-3. On the set-up: method as in PMID 34681843. As to conditions: PC-3, AR negative, three days, MTS; cited from earlier work.
Data set [1] is described as follows: Tolerated dose of RM-581 in mice (dose escalation). In kind it is in vivo. The procedure:
It is important to note that animal death is not an accepted endpoint for CCAC. RM-581 was first dissolved in DMSO, and PG was added to obtain a final 8% concentration of co-solvent DMSO. The injected volume was 0.1 mL, but the number of injections ranged from 1, 2, or 3 to obtain the expected dose. Each week for […] consecutive weeks, an increased dose (60, 120, 240, 360, 480, 600, or 720 mg/kg) of RM-581 was administered by gavage (PO), and the mice were weighed and observed for 7 days to notice any signs of toxicity. The protocol was applied to four groups (Gr) divided as follows: Gr-1: 5 female mice received the vehicle only; Gr-2: 5 male mice received the vehicle only; Gr-3: 5 female mice treated with RM-581; and Gr-4: 5 male mice treated with RM-581.

The next data set relates to LAPC-4. Description: PCa cell viability proliferation screening (MTS), LAPC-4. In kind it is cell-based. The settings on record: Homo sapiens, LAPC4, 72 h, LAPC-4, AR positive, three days. Here is the method:
VCaP (4 × 10^4 cells/well) were seeded in 96-well plates in DMEM media supplemented with 10% fetal bovine serum (FBS), penicillin, streptomycin, and sodium pyruvate. 22Rv1 cells (2 × 10^3 cells/well) and LAPC-4 cells (6 × 10^3 cells/well) were seeded in 96-well plates in RPMI media supplemented with 10% FBS, penicillin, streptomycin, and sodium pyruvate. The cells were incubated at 37 °C in a 5% CO2 humidified atmosphere for 24 h before treatment with multiple concentrations of RM-581 dissolved in dimethyl sulfoxide (DMSO). The concentrations used were between 0.01 μM and 50 μM. Treatment lasted for 3 days for all the cell lines except VCaP cells, which were treated for 7 days due to slower proliferation rates. At the end of the assay, 20 μL of MTS (Cell Titer 96 Aqueous, Promega, Nepean, ON, Canada) were added to each well, and the mixture was incubated for 4 h at 37 °C. The plates were subsequently analyzed at 490 nm using a Tecan M-200 microplate reader (Männedorf, Switzerland).

The source of these data is PMC10252594 (Cancers, 2023).

In the case of `C#C[C@]1(O)CC[C@H]2[C@@H]3CCc4cc(OC)c(N5CCN(C(=O)[C@@H]6CCCN6C(=O)c6ccc7ccccc7n6)CC5)cc4[C@H]3CC[C@@]21C` [RM-581], the IC50 with PC-3 was 1200 nM; in the data set with LAPC-4 it was 560 nM. Besides, in data set [1] (assuming effective dose of 30 mg/kg), the therapeutic index was greater than 24. In addition, the “signs of toxicity, dose escalation” value in data set [1] (normal male and female mice, 60, 120, 240, 360, 480, 600 and 720 mg/kg PO weekly) is “no signs of toxicity”. In addition, the “body weight, treated vs control groups” value in data set [1] (normal mice, dose escalation up to 720 mg/kg PO, 7 weeks) is “no significant body weight difference”.
